Legend:
Test in all cases: relative viability (nuclei count vs DMSO), 5 days (fraction); higher = more cells survive
[1] = test system: NCI-H1793
In short: (§1)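 Cells from lung cancer lines were seeded into 1536-well plates and, one day later, dosed by pin tool. Treatments were either a single drug or a fixed dose of an anchor drug with five library-drug doses (not always all listed) in √10 steps. After 5 days, nuclei were stained in a one-step fixation (final 0.05% Triton X-100, 1% formaldehyde, 1 ug/ml Hoechst) and counted on 4× images, and relative viability is the treated-to-vehicle nuclei ratio, as the median of duplicate plates.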

[2] = test system: SW 1573
In short: as §1

[3] = test system: NCI-H1355
In short: as §1

[4] = test system: NCI-H2347
In short: as §1

[5] = test system: PC-3 [JPC-3]
In short: as §1

[6] = test system: PC-14
In short: as §1

[7] = test system: NCI-H647
In short: as §1

[8] = test system: NCI-H520
In short: as §1

[9] = test system: NCI-H727
In short: as §1

[10] = test system: LCLC-97TM1
In short: as §1

[11] = test system: NCI-H1993
In short: as §1

[12] = test system: NCI-H460
In short: as §1

[13] = test system: NCI-H1666
In short: as §1

[14] = test system: NCI-H1975
In short: as §1

[15] = test system: NCI-H2009
In short: as §1

[16] = test system: SK-LU-1
In short: as §1

[17] = test system: EMC-BAC-2
In short: as §1

[18] = test system: NCI-H1755
In short: as §1

[19] = test system: NCI-H2170
In short: as §1

[20] = test system: NCI-H2126
In short: as §1

[21] = test system: ABC-1
In short: as §1

[22] = test system: NCI-H1944
In short: as §1

[23] = test system: NCI-H441
In short: as §1

O=C(O)CCCCC(CCSCc1ccccc1)SCc1ccccc1 (centres undefined) [CPI-613] + COc1cc2c(Oc3ccc(NC(=O)C4(C(=O)Nc5ccc(F)cc5)CC4)cc3F)ccnc2cc1OCCCN1CCOCC1 [Foretinib] (partner 0.25 µM)
relative viability ([1]; first compound 5 µM): 0.608
relative viability ([1]; first compound 15.81 µM): 0.618
relative viability ([1]; first compound 50 µM): 0.827
relative viability ([1]; first compound 158.11 µM): 0.385
relative viability ([1]; first compound 500 µM): 0.0145
relative viability ([2]; first compound 5 µM): 0.943
relative viability ([2]; first compound 15.81 µM): 0.807
relative viability ([2]; first compound 50 µM): 0.844
relative viability ([2]; first compound 158.11 µM): 0.88
relative viability ([2]; first compound 500 µM): 0.871
relative viability ([3]; first compound 5 µM): 0.941
relative viability ([3]; first compound 15.81 µM): 0.94
relative viability ([3]; first compound 50 µM): 0.998
relative viability ([3]; first compound 158.11 µM): 0.455
relative viability ([3]; first compound 500 µM): 0.137
relative viability ([4]; first compound 5 µM): 0.7
relative viability ([4]; first compound 15.81 µM): 1.05
relative viability ([4]; first compound 50 µM): 1.09
relative viability ([4]; first compound 500 µM): 1.05
relative viability ([5]; first compound 5 µM): 0.973
relative viability ([5]; first compound 15.81 µM): 0.899
relative viability ([5]; first compound 50 µM): 0.916
relative viability ([5]; first compound 158.11 µM): 0.163
relative viability ([5]; first compound 500 µM): 0.139
relative viability ([6]; first compound 5 µM): 0.953
relative viability ([6]; first compound 15.81 µM): 0.862
relative viability ([6]; first compound 50 µM): 0.852
relative viability ([6]; first compound 158.11 µM): 0.845
relative viability ([6]; first compound 500 µM): 0.991
relative viability ([7]; first compound 5 µM): 0.992
relative viability ([7]; first compound 15.81 µM): 1.2
relative viability ([7]; first compound 50 µM): 1.15
relative viability ([7]; first compound 158.11 µM): 0.34
relative viability ([7]; first compound 500 µM): 0.0186
relative viability ([8]; first compound 5 µM): 0.755
relative viability ([8]; first compound 15.81 µM): 0.784
relative viability ([8]; first compound 50 µM): 0.623
relative viability ([8]; first compound 158.11 µM): 0.523
relative viability ([8]; first compound 500 µM): 0.142
relative viability ([9]; first compound 5 µM): 0.854
relative viability ([9]; first compound 15.81 µM): 1.39
relative viability ([9]; first compound 50 µM): 0.865
relative viability ([9]; first compound 158.11 µM): 0.572
relative viability ([9]; first compound 500 µM): 0.47
relative viability ([10]; first compound 5 µM): 0.95
relative viability ([10]; first compound 15.81 µM): 0.935
relative viability ([10]; first compound 50 µM): 0.926
relative viability ([10]; first compound 158.11 µM): 0.324
relative viability ([10]; first compound 500 µM): 0.0466
relative viability ([11]; first compound 5 µM): 0.829
relative viability ([11]; first compound 15.81 µM): 0.78
relative viability ([11]; first compound 50 µM): 0.961
relative viability ([11]; first compound 158.11 µM): 0.509
relative viability ([11]; first compound 500 µM): 0.452
relative viability ([12]; first compound 5 µM): 0.979
relative viability ([12]; first compound 15.81 µM): 0.978
relative viability ([12]; first compound 50 µM): 1.01
relative viability ([12]; first compound 158.11 µM): 0.479
relative viability ([12]; first compound 500 µM): 0.0276
relative viability ([13]; first compound 5 µM): 0.944
relative viability ([13]; first compound 15.81 µM): 0.901
relative viability ([13]; first compound 50 µM): 0.971
relative viability ([13]; first compound 158.11 µM): 0.397
relative viability ([13]; first compound 500 µM): 0.206
relative viability ([14]; first compound 5 µM): 0.943
relative viability ([14]; first compound 15.81 µM): 0.964
relative viability ([14]; first compound 50 µM): 0.963
relative viability ([14]; first compound 158.11 µM): 0.713
relative viability ([14]; first compound 500 µM): 0.151
relative viability ([15]; first compound 5 µM): 1.25
relative viability ([15]; first compound 15.81 µM): 1.16
relative viability ([15]; first compound 50 µM): 1.12
relative viability ([15]; first compound 158.11 µM): 0.221
relative viability ([15]; first compound 500 µM): 0.019
relative viability ([16]; first compound 5 µM): 0.875
relative viability ([16]; first compound 15.81 µM): 0.754
relative viability ([16]; first compound 50 µM): 0.626
relative viability ([16]; first compound 158.11 µM): 0.282
relative viability ([16]; first compound 500 µM): 0.092
relative viability ([17]; first compound 5 µM): 1.01
relative viability ([17]; first compound 15.81 µM): 0.993
relative viability ([17]; first compound 50 µM): 0.967
relative viability ([17]; first compound 158.11 µM): 0.367
relative viability ([17]; first compound 500 µM): 0.0284
relative viability ([18]; first compound 5 µM): 0.886
relative viability ([18]; first compound 15.81 µM): 0.878
relative viability ([18]; first compound 50 µM): 0.898
relative viability ([18]; first compound 158.11 µM): 0.887
relative viability ([18]; first compound 500 µM): 0.175
relative viability ([19]; first compound 5 µM): 0.767
relative viability ([19]; first compound 15.81 µM): 0.906
relative viability ([19]; first compound 50 µM): 0.929
relative viability ([19]; first compound 158.11 µM): 0.795
relative viability ([19]; first compound 500 µM): 0.139
relative viability ([20]; first compound 5 µM): 1.12
relative viability ([20]; first compound 15.81 µM): 1.09
relative viability ([20]; first compound 50 µM): 1.09
relative viability ([20]; first compound 158.11 µM): 1.14
relative viability ([20]; first compound 500 µM): 1.18
relative viability ([21]; first compound 5 µM): 1.14
relative viability ([21]; first compound 15.81 µM): 0.929
relative viability ([21]; first compound 50 µM): 0.996
relative viability ([21]; first compound 158.11 µM): 0.243
relative viability ([21]; first compound 500 µM): 0.0969
relative viability ([22]; first compound 5 µM): 0.923
relative viability ([22]; first compound 15.81 µM): 0.878
relative viability ([22]; first compound 50 µM): 0.967
relative viability ([22]; first compound 158.11 µM): 0.649
relative viability ([22]; first compound 500 µM): 0.0567
relative viability ([23]; first compound 5 µM): 0.962
relative viability ([23]; first compound 15.81 µM): 0.948
relative viability ([23]; first compound 50 µM): 0.937
relative viability ([23]; first compound 158.11 µM): 0.271
relative viability ([23]; first compound 500 µM): 0.076
